This is an account of results in the NIST ThermoML archive (doi:10.1016/j.fluid.2010.08.027).

For this data set the following is noted: 101.33 kPa, Liquid, Vibrating tube method.

Numbers after ± are expanded uncertainties.

The mass density is mass per unit of volume. For `Cn1cc[n+](CCO)c1.O=S(=O)([O-])C(F)(F)F`, the mass density runs as follows: (303.15 K) 1444 ± 2 kg/m3; (313.15 K) 1436.1 ± 2 kg/m3; (323.15 K) 1428 ± 2 kg/m3; (333.15 K) 1420.5 ± 1.9 kg/m3; (343.15 K) 1410.8 ± 1.9 kg/m3; (353.15 K) 1400.5 ± 1.9 kg/m3.

Turning to `Cn1cc[n+](CCO)c1.F[P-](F)(F)(F)(F)F` [3-(2-hydroxyethyl)-1-methylimidazolium hexafluorophosphate], the mass density (303.15 K) was 1555.6 ± 2.2 kg/m3; the mass density (308.15 K) came out at 1550.8 ± 2.2 kg/m3; the mass density (313.15 K) is reported as 1546 ± 2.2 kg/m3; the mass density (318.15 K) stood at 1541.1 ± 2.2 kg/m3; the mass density (323.15 K) worked out at 1536.4 ± 2.2 kg/m3; the mass density (328.15 K) stood at 1531.8 ± 2.2 kg/m3. Further, the mass density came to 1527.2 ± 2.2 kg/m3 (333.15 K); 1522.6 ± 2.2 kg/m3 (338.15 K); 1518.2 ± 2.2 kg/m3 (343.15 K); 1513.6 ± 2.2 kg/m3 (348.15 K); 1508.7 ± 2.1 kg/m3 (353.15 K).

For `Cn1cc[n+](CCO)c1.O=S(=O)([N-]S(=O)(=O)C(F)(F)F)C(F)(F)F`, the mass density (303.15 K) came to 1589.4 ± 2.3 kg/m3; the mass density (308.15 K) is reported as 1584.2 ± 2.3 kg/m3; the mass density (313.15 K) is on record as 1578.9 ± 2.3 kg/m3; the mass density (318.15 K) is reported as 1574.2 ± 2.3 kg/m3; the mass density (323.15 K) worked out at 1568.7 ± 2.3 kg/m3; the mass density (328.15 K) amounted to 1563.7 ± 2.3 kg/m3. The mass density (333.15 K) is on record as 1558.7 ± 2.3 kg/m3; the mass density (338.15 K) was found to be 1553.7 ± 2.2 kg/m3; the mass density (343.15 K) was found to be 1548.8 ± 2.2 kg/m3; the mass density (348.15 K) is 1544 ± 2.2 kg/m3; the mass density (353.15 K) was found to be 1538.6 ± 2.2 kg/m3.
